Tested on: MV-4-11 cells
Assay: Gene expression microarray analysis (Affymetrix PrimeView) and GSEA
Type: cell-based, human
Design: RFU PODN (11730768_x_at) / Fold change /veh PODN (11730768_x_at) / RFU LINC00158 (11744669_a_at) / Fold change /veh LINC00158 (11744669_a_at) / RFU DUSP10 (11751237_a_at) / Fold change /veh DUSP10 (11751237_a_at) / RFU ID3 (11757404_x_at) / Fold change /veh ID3 (11757404_x_at) / RFU PLEKHG5 (11737974_s_at) / Fold change /veh PLEKHG5 (11737974_s_at) / RFU LRRC4B (11730491_at) / Fold change /veh LRRC4B (11730491_at) / RFU GIMAP4 (11747438_a_at) / Fold change /veh GIMAP4 (11747438_a_at) / RFU KRT8 (11758183_x_at) / Fold change /veh KRT8 (11758183_x_at) / RFU CNN1 (11734310_a_at) / Fold change /veh CNN1 (11734310_a_at) / RFU VPS37D (11726825_at) / Fold change /veh VPS37D (11726825_at) / RFU C10orf10 (11716522_x_at) / Fold change /veh C10orf10 (11716522_x_at) / RFU KIR2DL2 /// KIR2DL4 /// KIR2DL5A /// KIR2DL5B /// KIR2DS1 /// KIR2DS2 /// KIR2DS3 /// KIR2DS4 /// KIR3DL3 /// KIR3DL3 /// KIR3DS1 (11738374_at) / Fold change /veh KIR2DL2 /// KIR2DL4 /// KIR2DL5A /// KIR2DL5B /// KIR2DS1 /// KIR2DS2 /// KIR2DS3 /// KIR2DS4 /// KIR3DL3 /// KIR3DL3 /// KIR3DS1 (11738374_at) / RFU C1QL1 (11718748_at) / Fold change /veh C1QL1 (11718748_at) / RFU TMPRSS4 (11747572_a_at) / Fold change /veh TMPRSS4 (11747572_a_at) / RFU HAMP (11756126_x_at) / Fold change /veh HAMP (11756126_x_at) / RFU RNFT2 (11725882_a_at) / Fold change /veh RNFT2 (11725882_a_at) / RFU NR4A2 (11747474_a_at) / Fold change /veh NR4A2 (11747474_a_at) / RFU ABCC12 (11746883_a_at) / Fold change /veh ABCC12 (11746883_a_at) / RFU TMEM136 (11760407_x_at) / Fold change /veh TMEM136 (11760407_x_at) / RFU CLDN22 /// WWC2 (11732394_at) / Fold change /veh CLDN22 /// WWC2 (11732394_at) / RFU HLA-DPB1 (11760878_x_at) / Fold change /veh HLA-DPB1 (11760878_x_at) / RFU SPINT1 (11716480_a_at) / Fold change /veh SPINT1 (11716480_a_at) / RFU GAP43 (11754022_s_at) / Fold change /veh GAP43 (11754022_s_at) / RFU A4GNT (11735810_at) / Fold change /veh A4GNT (11735810_at) / RFU PRB3 (11715151_x_at) / Fold change /veh PRB3 (11715151_x_at) / RFU TUBB4B (11761932_at) / Fold change /veh TUBB4B (11761932_at) / RFU CAPN14 (11732068_a_at) / Fold change /veh CAPN14 (11732068_a_at) / RFU TMCC2 (11721928_a_at) / Fold change /veh TMCC2 (11721928_a_at) / RFU IRGQ (11745062_a_at) / Fold change /veh IRGQ (11745062_a_at) / RFU FAM174B (11720279_a_at) / Fold change /veh FAM174B (11720279_a_at) / RFU TMPRSS4 (11748680_a_at) / Fold change /veh TMPRSS4 (11748680_a_at) / RFU FAM212B (11763350_a_at) / Fold change /veh FAM212B (11763350_a_at) / RFU PLEKHG5 (11743358_a_at) / Fold change /veh PLEKHG5 (11743358_a_at) / RFU ZSCAN30 (11745921_a_at) / Fold change /veh ZSCAN30 (11745921_a_at) / RFU CMKLR1 (11741424_a_at) / Fold change /veh CMKLR1 (11741424_a_at) / RFU LOC101060620 /// MAPK8IP1 (11723275_at) / Fold change /veh LOC101060620 /// MAPK8IP1 (11723275_at) / RFU SPTSSB (11747773_x_at) / Fold change /veh SPTSSB (11747773_x_at) / RFU PRSS12 (11739890_at) / Fold change /veh PRSS12 (11739890_at) / RFU BIN1 (11741810_x_at) / Fold change /veh BIN1 (11741810_x_at) / RFU WNT11 (11732464_a_at) / Fold change /veh WNT11 (11732464_a_at) / RFU C10orf10 (11716521_a_at) / Fold change /veh C10orf10 (11716521_a_at) / RFU C5orf56 (11738089_at) / Fold change /veh C5orf56 (11738089_at) / RFU CYB561 (11721691_x_at) / Fold change /veh CYB561 (11721691_x_at) / RFU ANKRD19P (11752326_a_at) / Fold change /veh ANKRD19P (11752326_a_at) / RFU OR2T12 /// OR2T33 /// OR2T8 (11738714_s_at) / Fold change /veh OR2T12 /// OR2T33 /// OR2T8 (11738714_s_at) / RFU VCAN (11748164_a_at) / Fold change /veh VCAN (11748164_a_at) / RFU JSRP1 (11732532_at) / Fold change /veh JSRP1 (11732532_at) / RFU KRTAP10-11 (11738290_x_at) / Fold change /veh KRTAP10-11 (11738290_x_at) / RFU MYO3A (11730013_a_at) / Fold change /veh MYO3A (11730013_a_at) / RFU EBF3 (11725865_a_at) / Fold change /veh EBF3 (11725865_a_at) / RFU CAMK2N1 (11719241_x_at) / Fold change /veh CAMK2N1 (11719241_x_at) / RFU C5orf56 (11738088_a_at) / Fold change /veh C5orf56 (11738088_a_at) / RFU OLFML3 (11715873_a_at) / Fold change /veh OLFML3 (11715873_a_at) / RFU LOC100653217 /// NTM (11731650_a_at) / Fold change /veh LOC100653217 /// NTM (11731650_a_at) / RFU MAPK11 (11762145_a_at) / Fold change /veh MAPK11 (11762145_a_at) / RFU FIZ1 (11724087_x_at) / Fold change /veh FIZ1 (11724087_x_at) / RFU OASL (11726364_x_at) / Fold change /veh OASL (11726364_x_at) / RFU SOX15 (11748057_x_at) / Fold change /veh SOX15 (11748057_x_at) / RFU CD79A (11719716_a_at) / Fold change /veh CD79A (11719716_a_at) / RFU HIST1H1D (11736915_at) / Fold change /veh HIST1H1D (11736915_at) / RFU CASKIN2 (11723855_a_at) / Fold change /veh CASKIN2 (11723855_a_at) / RFU LOC730098 (11760151_x_at) / Fold change /veh LOC730098 (11760151_x_at) / RFU OR4N2 (11742367_at) / Fold change /veh OR4N2 (11742367_at) / RFU PRRT2 (11749266_a_at) / Fold change /veh PRRT2 (11749266_a_at) / RFU SNX32 (11753110_a_at) / Fold change /veh SNX32 (11753110_a_at) / RFU CDHR5 (11726645_a_at) / Fold change /veh CDHR5 (11726645_a_at) / RFU RCAN1 (11760418_a_at) / Fold change /veh RCAN1 (11760418_a_at) / RFU FAM167A (11723789_a_at) / Fold change /veh FAM167A (11723789_a_at) / RFU FAM26E (11764081_at) / Fold change /veh FAM26E (11764081_at) / RFU ISYNA1 (11749810_s_at) / Fold change /veh ISYNA1 (11749810_s_at) / RFU ACY1 (11761880_at) / Fold change /veh ACY1 (11761880_at) / RFU 11764098_at / Fold change /veh 11764098_at / RFU SAMD14 (11745864_x_at) / Fold change /veh SAMD14 (11745864_x_at) / RFU NPB (11741838_a_at) / Fold change /veh NPB (11741838_a_at) / RFU TMPRSS6 (11731388_a_at) / Fold change /veh TMPRSS6 (11731388_a_at) / RFU KRTAP10-2 (11738614_at) / Fold change /veh KRTAP10-2 (11738614_at) / RFU ARHGAP8 /// PRR5-ARHGAP8 (11727945_x_at) / Fold change /veh ARHGAP8 /// PRR5-ARHGAP8 (11727945_x_at) / RFU KRTAP5-7 /// NADSYN1 (11734609_at) / Fold change /veh KRTAP5-7 /// NADSYN1 (11734609_at) / RFU RASL12 (11751679_a_at) / Fold change /veh RASL12 (11751679_a_at) / RFU CDKN2B (11736163_a_at) / Fold change /veh CDKN2B (11736163_a_at) / RFU PRF1 (11729649_at) / Fold change /veh PRF1 (11729649_at) / RFU, ZNF638 /// ZNF638-IT1 / Fold change vs veh, ZNF638 /// ZNF638-IT1 / RFU, PANK3 / Fold change vs veh, PANK3 / RFU, SH3YL1 / Fold change vs veh, SH3YL1 / RFU, ZEB2 / Fold change vs veh, ZEB2 / RFU, NRIP1 / Fold change vs veh, NRIP1 / RFU, PTTG1IP / Fold change vs veh, PTTG1IP / RFU, CAPN2 / Fold change vs veh, CAPN2 / RFU, MED14 / Fold change vs veh, MED14 / RFU, SNORA58 / Fold change vs veh, SNORA58 / RFU, C1orf63 / Fold change vs veh, C1orf63 / RFU, LRRFIP1 / Fold change vs veh, LRRFIP1 / RFU, NDUFAF7 / Fold change vs veh, NDUFAF7 / RFU, SLC12A2 / Fold change vs veh, SLC12A2 / RFU, IBTK / Fold change vs veh, IBTK / RFU, ESF1 / Fold change vs veh, ESF1 / Fold change vs veh, TMEM50B / RFU, TAOK1 / Fold change vs veh, TAOK1 / RFU, ACBD3 / Fold change vs veh, ACBD3 / RFU, TMA16 / Fold change vs veh, TMA16 / RFU, RWDD3 / Fold change vs veh, RWDD3 / RFU, BCAT1 / Fold change vs veh, BCAT1 / RFU, EDEM3 / Fold change vs veh, EDEM3 / RFU, TMEM33 / Fold change vs veh, TMEM33 / RFU, WDR75 / Fold change vs veh, WDR75 / RFU, AHCTF1 / Fold change vs veh, AHCTF1 / RFU, TFRC / Fold change vs veh, TFRC / RFU, ZDHHC17 / Fold change vs veh, ZDHHC17 / RFU, NOM1 / Fold change vs veh, NOM1 / RFU, ARL8B / Fold change vs veh, ARL8B / RFU, ZBTB11 / Fold change vs veh, ZBTB11 / RFU, TAMM41 / Fold change vs veh, TAMM41 / RFU, KIAA1704 /// LOC100996395 / Fold change vs veh, KIAA1704 /// LOC100996395 / RFU, ING1 / Fold change vs veh, ING1 / RFU, TRMT61B / Fold change vs veh, TRMT61B / RFU, FUBP3 / Fold change vs veh, FUBP3 / RFU, TP53 / Fold change vs veh, TP53 / RFU, TNKS2 / Fold change vs veh, TNKS2 / RFU, ZFP14 / Fold change vs veh, ZFP14 / RFU, ACTR2 / Fold change vs veh, ACTR2 / RFU, PPP3R1 / Fold change vs veh, PPP3R1 / RFU, PIK3R1 / Fold change vs veh, PIK3R1 / RFU, HNRNPA1 / Fold change vs veh, HNRNPA1 / RFU, RNF170 / Fold change vs veh, RNF170 / RFU, ZNF28 / Fold change vs veh, ZNF28 / RFU, RNGTT / Fold change vs veh, RNGTT / RFU, OGT / Fold change vs veh, OGT / RFU, BRD1 / Fold change vs veh, BRD1 / RFU, MARS / Fold change vs veh, MARS / RFU, ZNF655 / Fold change vs veh, ZNF655 / RFU, FAHD1 / Fold change vs veh, FAHD1 / RFU, BDP1 / Fold change vs veh, BDP1 / RFU, LRRCC1 / Fold change vs veh, LRRCC1 / RFU, ARID1A / Fold change vs veh, ARID1A / RFU, ZNF146 / Fold change vs veh, ZNF146 / RFU, ZNF330 / Fold change vs veh, ZNF330 / RFU, GPN3 / Fold change vs veh, GPN3 / RFU, C9orf123 / Fold change vs veh, C9orf123 / RFU, N4BP2L2 / Fold change vs veh, N4BP2L2 / RFU, ARFIP1 / Fold change vs veh, ARFIP1 / RFU, FAM179B / Fold change vs veh, FAM179B / RFU, BCL10 / Fold change vs veh, BCL10 / RFU, UHRF1BP1L / Fold change vs veh, UHRF1BP1L / RFU, BET1 / Fold change vs veh, BET1 / RFU, CNOT2 / Fold change vs veh, CNOT2 / RFU, ZNF268 / Fold change vs veh, ZNF268 / Fold change vs veh, ZNF507 / RFU, DGCR2 / Fold change vs veh, DGCR2 / RFU, WDSUB1 / Fold change vs veh, WDSUB1 / Fold change vs veh, HSP90B1 /// MIR3652 / RFU, ADSS / Fold change vs veh, ADSS / RFU, GK / Fold change vs veh, GK / RFU, ZNF148 / Fold change vs veh, ZNF148 / RFU, TAF9 / Fold change vs veh, TAF9 / RFU, SLC1A5 / Fold change vs veh, SLC1A5 / RFU, SLMO2 / Fold change vs veh, SLMO2 / RFU, ABCC4 / Fold change vs veh, ABCC4 / RFU, LOC101060439 /// RAP1B / Fold change vs veh, LOC101060439 /// RAP1B / RFU, RFX7 / Fold change vs veh, RFX7 / RFU, GTPBP10 / Fold change vs veh, GTPBP10 / RFU, CNEP1R1 / Fold change vs veh, CNEP1R1 / RFU, BIVM-ERCC5 /// ERCC5 / Fold change vs veh, BIVM-ERCC5 /// ERCC5 / RFU, ILF3 / Fold change vs veh, ILF3 / RFU 11762660_at / Fold change /veh 11762660_at / RFU VCAN (11757783_s_at) / Fold change /veh VCAN (11757783_s_at) / RFU DDX43 (11728927_at) / Fold change /veh DDX43 (11728927_at) / RFU KRT8 (11758188_x_at) / Fold change /veh KRT8 (11758188_x_at) / RFU NKD1 (11759106_at) / Fold change /veh NKD1 (11759106_at) / RFU SRD5A1 (11742802_a_at) / Fold change /veh SRD5A1 (11742802_a_at) / RFU TPSAB1 /// TPSB2 (11721975_s_at) / Fold change /veh TPSAB1 /// TPSB2 (11721975_s_at) / RFU GSTM3 (11746129_a_at) / Fold change /veh GSTM3 (11746129_a_at) / RFU IL23R (11737362_x_at) / Fold change /veh IL23R (11737362_x_at) / RFU TMEM51 (11727254_a_at) / Fold change /veh TMEM51 (11727254_a_at) / RFU PIWIL2 (11732686_x_at) / Fold change /veh PIWIL2 (11732686_x_at) / RFU ORM1 (11744905_x_at) / Fold change /veh ORM1 (11744905_x_at) / RFU CCDC152 (11743942_at) / Fold change /veh CCDC152 (11743942_at) / RFU ECM1 (11717891_a_at) / Fold change /veh ECM1 (11717891_a_at) / RFU IL23R (11748794_a_at) / Fold change /veh IL23R (11748794_a_at) / RFU TNFAIP8L3 (11732012_x_at) / Fold change /veh TNFAIP8L3 (11732012_x_at) / RFU MBOAT4 (11741988_at) / Fold change /veh MBOAT4 (11741988_at) / RFU 11764193_at / Fold change /veh 11764193_at / RFU TMEM53 (11763286_at) / Fold change /veh TMEM53 (11763286_at) / RFU MAGEB2 (11727129_at) / Fold change /veh MAGEB2 (11727129_at) / RFU TMEM200A (11744735_a_at) / Fold change /veh TMEM200A (11744735_a_at) / RFU CCDC152 (11751479_a_at) / Fold change /veh CCDC152 (11751479_a_at) / RFU FAM211A (11726209_a_at) / Fold change /veh FAM211A (11726209_a_at) / RFU RGS16 (11746705_a_at) / Fold change /veh RGS16 (11746705_a_at) / RFU VCAN (11755009_s_at) / Fold change /veh VCAN (11755009_s_at) / RFU RHOB (11743442_s_at) / Fold change /veh RHOB (11743442_s_at) / RFU RGS16 (11720943_a_at) / Fold change /veh RGS16 (11720943_a_at) / RFU RGS16 (11720944_at) / Fold change /veh RGS16 (11720944_at) / RFU, VPS4B / Fold change vs veh, VPS4B / RFU, CREB1 / Fold change vs veh, CREB1 / RFU, DNAJC13 / Fold change vs veh, DNAJC13 / RFU, GNAQ / Fold change vs veh, GNAQ / RFU, CDK5R1 / Fold change vs veh, CDK5R1 / RFU, ZRANB3 / Fold change vs veh, ZRANB3 / RFU, CUL4A / Fold change vs veh, CUL4A / RFU, CCNY / Fold change vs veh, CCNY / RFU, UFL1 / Fold change vs veh, UFL1 / RFU, COG3 / Fold change vs veh, COG3 / RFU, DIAPH2 / Fold change vs veh, DIAPH2 / RFU, SKA2 / Fold change vs veh, SKA2 / RFU, AFF3 / Fold change vs veh, AFF3 / RFU, LMF1 / Fold change vs veh, LMF1 / RFU, IPO11 / Fold change vs veh, IPO11 / RFU, DFFB / Fold change vs veh, DFFB / RFU, FOXP1 / Fold change vs veh, FOXP1 / RFU, CARD8 / Fold change vs veh, CARD8 / RFU, STRN3 / Fold change vs veh, STRN3 / RFU, ADK / Fold change vs veh, ADK / RFU, RASSF2 / Fold change vs veh, RASSF2 / RFU, WIPF1 / Fold change vs veh, WIPF1 / RFU, LARP1B / Fold change vs veh, LARP1B / RFU, RASA1 / Fold change vs veh, RASA1 / RFU, RB1 / Fold change vs veh, RB1 / RFU, PPFIA1 / Fold change vs veh, PPFIA1 / RFU, MAT2A / Fold change vs veh, MAT2A / RFU, CCT5 / Fold change vs veh, CCT5 / RFU, WDR92 / Fold change vs veh, WDR92 / RFU, CUX1 / Fold change vs veh, CUX1 / RFU, TTC7A / Fold change vs veh, TTC7A / RFU, TMEM135 / Fold change vs veh, TMEM135 / RFU, DEPTOR / Fold change vs veh, DEPTOR / RFU, CPM / Fold change vs veh, CPM / RFU, DNAJB6 / Fold change vs veh, DNAJB6 / RFU, CACNA2D3 / Fold change vs veh, CACNA2D3 / RFU, DTX4 / Fold change vs veh, DTX4 / RFU, TFCP2 / Fold change vs veh, TFCP2 / RFU, GMCL1 /// GMCL1P1 / Fold change vs veh, GMCL1 /// GMCL1P1 / RFU, AEBP2 / Fold change vs veh, AEBP2 / RFU, SNHG1 /// SNORD22 /// SNORD25 /// SNORD26 /// SNORD27 /// SNORD28 /// SNORD29 /// SNORD31 / Fold change vs veh, SNHG1 /// SNORD22 /// SNORD25 /// SNORD26 /// SNORD27 /// SNORD28 /// SNORD29 /// SNORD31 / Fold change (Aza/veh), C12orf56 (ProbeSet 11735607_a_at) / Fold change (ACY-1035/veh), C12orf56 (ProbeSet 11735607_a_at) / Fold change (Aza/veh), FGFR1OP (ProbeSet 11751329_s_at) / Fold change (ACY-1035/veh), FGFR1OP (ProbeSet 11751329_s_at) / Fold change (Aza/veh), VPS36 (ProbeSet 11739960_a_at) / Fold change (ACY-1035/veh), VPS36 (ProbeSet 11739960_a_at) / RFU SYPL1 (11715823_x_at) / Fold change /veh SYPL1 (11715823_x_at) / RFU IGFBP7 (11715501_s_at) / Fold change /veh IGFBP7 (11715501_s_at) / RFU REEP3 (11722064_at) / Fold change /veh REEP3 (11722064_at) / RFU IGLL1 (11728026_x_at) / Fold change /veh IGLL1 (11728026_x_at): dose or concentration left out as unconfirmed
Conditions: MV-4-11 cells, 48 hours

Nc1ccc(-c2cccs2)cc1NC(=O)c1ccc2c(c1)cc(C1CC1)n2CCN1CCOCC1 [ACY-1035]
Fold change /veh PODN (11730768_x_at): 1.05

— article PMC5218480 (PLoS ONE, 2017)
